Assay results taken from ChEMBL document CHEMBL6114979, “Discovery of 3-indolylbenzoquinone derivatives with therapeutic potential for breast cancer” (Bioorg Med Chem, 2025).
≈ marks a conversion by molar mass, not a printed value. Calls of active or inactive are those of the source. The calls are words filed in the database; no cut-off is given here.

Assays:
[1] = Hepatotoxicity in Kunming mouse assessed as change in ALT level administered intraperitoneally for 14 days (reference value: 45.75 +/- 4.65 U); type: toxicity; conditions: in vivo, ip, 336 h, time 14 day
4T1 [2] = assay: Antitumor activity against mouse 4T1 cells implanted in Balb/c mouse assessed as appearance of mitochondrial swelling at 80 mg/kg, IT administered once every 4 days for 14 days in presence of olive oil by TEM analysis; type: functional, organism-based; conditions: time 14.0 day
4T1 [3] = assay: Antitumor activity against mouse 4T1 cells implanted in Balb/c mouse assessed as reduction in tumor volume at 80 mg/kg, IT administered once every 4 days in presence of olive oil; type: functional, organism-based
[4] = target: Phosphatidylinositol 4,5-bisphosphate 3-kinase catalytic subunit alpha (Homo sapiens) (UniProt P42336); assay: Binding affinity to P13Kalpha in human MDA-MB-231 cells assessed as thermal stabilization at 6.4 uM incubated for 2 hrs by CETSA based Western blotting analysis
Phosphatidylinositol 4,5-bisphosphate 3-kinase catalytic subunit alpha (Homo sapiens), sequence (P42336 whole entry, looked up): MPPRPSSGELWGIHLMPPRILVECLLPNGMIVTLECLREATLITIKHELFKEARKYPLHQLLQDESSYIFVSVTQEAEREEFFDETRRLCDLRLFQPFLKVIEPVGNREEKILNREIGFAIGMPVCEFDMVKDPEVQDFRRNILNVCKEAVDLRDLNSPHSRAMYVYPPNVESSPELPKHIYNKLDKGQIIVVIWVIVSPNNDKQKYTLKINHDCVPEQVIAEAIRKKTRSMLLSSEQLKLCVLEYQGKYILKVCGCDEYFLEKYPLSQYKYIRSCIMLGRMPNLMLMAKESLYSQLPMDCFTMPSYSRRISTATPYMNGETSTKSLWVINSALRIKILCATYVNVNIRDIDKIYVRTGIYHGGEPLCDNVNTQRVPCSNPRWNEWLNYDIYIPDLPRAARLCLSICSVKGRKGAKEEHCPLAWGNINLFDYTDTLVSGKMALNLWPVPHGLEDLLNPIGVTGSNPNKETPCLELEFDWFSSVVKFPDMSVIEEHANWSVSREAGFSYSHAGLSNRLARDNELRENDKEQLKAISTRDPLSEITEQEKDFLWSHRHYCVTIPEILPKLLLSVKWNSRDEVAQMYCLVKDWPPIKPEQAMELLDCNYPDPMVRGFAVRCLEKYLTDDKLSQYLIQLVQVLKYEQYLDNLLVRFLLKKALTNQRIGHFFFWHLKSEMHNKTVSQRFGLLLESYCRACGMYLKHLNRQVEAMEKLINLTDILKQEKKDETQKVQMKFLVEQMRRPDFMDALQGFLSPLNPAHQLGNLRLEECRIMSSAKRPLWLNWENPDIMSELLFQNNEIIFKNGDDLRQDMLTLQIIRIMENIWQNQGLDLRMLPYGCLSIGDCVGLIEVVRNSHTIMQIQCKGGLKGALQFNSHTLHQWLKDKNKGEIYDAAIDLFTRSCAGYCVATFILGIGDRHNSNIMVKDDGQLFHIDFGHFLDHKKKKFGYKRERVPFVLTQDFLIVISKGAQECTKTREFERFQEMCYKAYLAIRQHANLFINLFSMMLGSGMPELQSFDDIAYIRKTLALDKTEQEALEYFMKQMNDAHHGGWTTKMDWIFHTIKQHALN

4T1 [5] = assay: Antitumor activity against mouse 4T1 cells implanted in Balb/c mouse assessed as tumor inhibition rate at 200 mg/kg, TOP administration once every 2 days for 14 days relative to control; type: functional; set-up: scale not given: the % may be the effect or the level left; conditions: time 14 day
4T1 [6] = assay: Antitumor activity against mouse 4T1 cells implanted in Balb/c mouse assessed as appearance of chromatin aggregation at 80 mg/kg, IT administered once every 4 days for 14 days in presence of olive oil by TEM analysis; type: functional, organism-based; conditions: time 14.0 day
4T1 [7] = assay: Antitumor activity against mouse 4T1 cells implanted in Balb/c mouse assessed as reduction in tumor volume at 25 to 35 mg/kg, ip administered once every 2 days for 14 days; type: functional, organism-based; conditions: dose 25-35 mg/kg, time 14.0 day
MDA-MB-231 [8] = assay: Antiproliferative activity against human MDA-MB-231 cells assessed as inhibition of cell proliferation incubated for 48 hrs by CCK-8 assay; type: functional, cell-based; conditions: MDA-MB-231, 48 h
4T1 [9] = assay: Antitumor activity against mouse 4T1 cells implanted in Balb/c mouse assessed as appearance of mitochondrial swelling at 25 to 35 mg/kg, ip administered once every 2 days for 14 days by TEM analysis; type: functional, organism-based; conditions: dose 25-35 mg/kg, time 14.0 day
[10] = Solubility of compound in 0.1 M HCL; type: physicochemical
[11] = Toxicity in Kunming mouse assessed as infiltration of chronic inflammatory cells at 240 to 469 mg/kg, ip administered for 14 days by H and E staining based analysis; type: organism-based; conditions: in vivo, 336 h, dose 240-469 mg/kg, time 14 day
4T1 [12] = assay: Antitumor activity against mouse 4T1 cells implanted in Balb/c mouse assessed as appearance of extensive tumor cell necrosis at 25 mg/kg, ip administered once every 2 days for 14 days; type: functional, organism-based; conditions: time 14.0 day
[13] = Nephrotoxicity in Kunming mouse assessed as change in CREA level administered intraperitoneally for 14 days (reference value: 16 +/- 2.45 U); type: toxicity; conditions: in vivo, ip, 336 h, time 14 day
4T1 [14] = assay: Antitumor activity against mouse 4T1 cells implanted in Balb/c mouse assessed as appearance of mitochondrial swelling at 200 mg/kg, TOP administration once every 2 days for 14 days; type: functional, organism-based; conditions: time 14.0 day
[15] = Solubility of compound in water; type: physicochemical
[16] = Cardiotoxicity in Kunming mouse assessed as change in LDH level administered intraperitoneally for 14 days (reference value: 1253 +/- 67.28 U); type: toxicity; conditions: in vivo, ip, 336 h, time 14 day
4T1 [17] = assay: Antitumor activity against mouse 4T1 cells implanted in Balb/c mouse assessed as appearance of nuclear membrane disruption at 80 mg/kg, IT administered once every 4 days for 14 days in presence of olive oil by TEM analysis; type: functional, organism-based; conditions: time 14.0 day
[18] = Toxicity in female Balb/c mouse implanted with mouse 4T1 cells assessed as change in body weight at 200 mg/kg, TOP administration once every 2 days for 14 days; type: organism-based; conditions: in vivo, topical_or_ocular, 336 h, time 14 day
4T1 [19] = assay: Antitumor activity against mouse 4T1 cells implanted in Balb/c mouse assessed as damage in endoplasmic reticulum at 200 mg/kg, TOP administration once every 2 days for 14 days; type: functional, organism-based; conditions: time 14.0 day
4T1 [20] = assay: Antitumor activity against mouse 4T1 cells implanted in Balb/c mouse assessed as damage in endoplasmic reticulum at 25 to 35 mg/kg, ip administered once every 2 days for 14 days by TEM analysis; type: functional, organism-based; conditions: dose 25-35 mg/kg, time 14.0 day
[21] = Toxicity in female Balb/c mouse implanted with mouse 4T1 cells assessed as mortality at 80 mg/kg, IT administered once every 4 days in presence of olive oil; type: organism-based; conditions: in vivo, other, 96 h
[22] = Toxicity in Kunming mouse assessed as change in lung morphology at 240 to 469 mg/kg, ip administered for 14 days by H and E staining based analysis; type: organism-based; conditions: in vivo, 336 h, dose 240-469 mg/kg, time 14 day
4T1 [23] = assay: Antitumor activity against mouse 4T1 cells implanted in Balb/c mouse assessed as appearance of loosely arranged tumor cells at 35 mg/kg, ip administered once every 2 days for 14 days; type: functional, organism-based; conditions: time 14.0 day
4T1 [24] = assay: Antitumor activity against mouse 4T1 cells implanted in Balb/c mouse assessed as appearance of vacuolation at 25 to 35 mg/kg, ip administered once every 2 days for 14 days by TEM analysis; type: functional, organism-based; conditions: dose 25-35 mg/kg, time 14.0 day
4T1 [25] = assay: Antitumor activity against mouse 4T1 cells implanted in Balb/c mouse assessed as reduction in tumor weight at 80 mg/kg, IT administered once every 4 days in presence of olive oil; type: functional, organism-based
4T1 [26] = assay: Antitumor activity against mouse 4T1 cells implanted in Balb/c mouse assessed as damage in endoplasmic reticulum at 80 mg/kg, IT administered once every 4 days for 14 days in presence of olive oil by TEM analysis; type: functional, organism-based; conditions: time 14.0 day
NIH3T3 = assay: Cytotoxicity against mouse 3T3 cells; type: toxicity, cell-based
A549 = assay: Antiproliferative activity against human A549 cells assessed as inhibition of cell proliferation incubated for 48 hrs by CCK-8 assay; type: functional, cell-based; conditions: A549, 48 h
MDA-MB-231 [27] = assay: Induction of apoptosis in human MDA-MB-231 cells assessed as necrotic cells at 1 uM incubated for 24 hrs by Annexin-V/PI staining based flow cytometric analysis (reference value: 0.71%); type: functional
[28] = Toxicity in Kunming mouse assessed as change in spleen lesions at 240 to 469 mg/kg, ip administered for 14 days by H and E staining based analysis; type: organism-based; conditions: in vivo, 336 h, dose 240-469 mg/kg, time 14 day
[29] = Toxicity in female Balb/c mouse implanted with mouse 4T1 cells assessed as change in spleen at 25 to 35 mg/kg, ip administered once every 2 days for 14 days; type: organism-based; conditions: in vivo, 48 h, dose 25-35 mg/kg, time 2 day
[30] = Hepatotoxicity in Kunming mouse assessed as change in AST level administered intraperitoneally for 14 days (reference value: 153.25 +/- 15.26 U); type: toxicity; conditions: in vivo, ip, 336 h, time 14 day
4T1 [31] = assay: Antitumor activity against mouse 4T1 cells implanted in Balb/c mouse assessed as appearance of vacuolation at 200 mg/kg, TOP administration once every 2 days for 14 days; type: functional, organism-based; conditions: time 14.0 day
[32] = Toxicity in female Balb/c mouse implanted with mouse 4T1 cells assessed as abnormalities in kidney at 35 mg/kg, ip administered once every 2 days for 14 days; type: organism-based; conditions: in vivo, 336 h, time 14 day

Structure (SMILES): Cc1[nH]c2ccccc2c1C1=C(F)C(=O)C(F)=C(N2CCOCC2)C1=O
- Activity [1]: 28.8 U/L
- Activity (4T1 [2]): Active
- Activity (4T1 [3]): Active
- Activity [4]: Active
- Activity (4T1 [5]): 38.9%
- Activity (4T1 [6]): Active
- Activity (4T1 [7]): Active
- IC50 (MDA-MB-231 [8]): 3.2 µM
- Activity (4T1 [9]): Active
- solubility [10]: 19 µg/mL (≈ 53 µM)
- Activity [11]: Toxic
- Activity (4T1 [12]): Active
- Activity [13]: 12.25 U
- Activity (4T1 [14]): Active
- solubility [15]: 28 µg/mL (≈ 78.1 µM)
- Activity [16]: 1060 U/L
- Activity (4T1 [17]): Active
- Activity [18]: Non-toxic
- Activity (4T1 [19]): Active
- Activity (4T1 [20]): Active
- Activity [21]: Non-toxic
- Activity [22]: Non-toxic
- Activity (4T1 [23]): Active
- Activity (4T1 [24]): Active
- Activity (4T1 [25]): Active
- Activity (4T1 [26]): Active
- Activity (NIH3T3): Toxic
- IC50 (A549): 5.21 µM
- Activity (MDA-MB-231 [27]): 3.93%
- Activity [28]: Non-toxic
- Activity [29]: Non-toxic
- Activity [30]: 106 U/L
- Activity (4T1 [31]): Active
- Activity [32]: Non-toxic
